# From patent US7811352B2, “Fertilizer compositions and methods of using” (priority 2005, dated 2010)
# Experiments:
# [1] = tested on: Floratam St. Augustine grass; test: Turfgrass quality and color ratings, St. Augustine grass (Example 9); assay type: in vivo; parameters: key: 1-10 scale: 10 = dark green turf, 1 = dead/brown, 6 = minimally acceptable; conditions: scale 1-10
# Description: In this Example, the effect of a fertilizer comprising lysine on warn season turfgrass growth was examined. The effects of lysine (HCl) and LIQUID LYSINE on a common type of lawn quality turfgrass (St. Augustine grass) were compared with those of urea and Milorganite. St. Augustine grass is a commonly utilized turfgrass throughout the warm, tropical zones for lawn turf and is a commercially significant species.
# Twelve fertilizer treatments comprising three concentrations of each fertilizer composition (Milorganite (N—P—K, 6-2-0), urea N—P—K, 46-0-0), LIQUID LYSINE (N—P—K, 10-2-1), and lysine (HCl) (N—P—K, 15-2-1)) were prepared and applied to 4 replications of Floratam St. Augustine grass. The lysine (HCl) was dissolved in water prior to application. Each fertilizer treatment was applied in concentrations of 0.5 lb N/1000 ft^2/month, 1.0 lb N/1000 ft^2/month and 3.0 lb N/1000 ft^2/month. The urea, LIQUID LYSINE and lysine (HCl) were applied as foliar liquids, while Milorganite was applied as a granular fertilizer. Plot size was 1 m×2 m set up as a randomized complete block. Plots were mowed at 3.0 inches before fertilizer application. Irrigation (0.15 inch) was applied following application. Plots were rated for turfgrass quality and color (scale of 1-10 where 10=dark green turf, 1=dead/brown turf; and 6=minimally acceptable turf) and phytotoxicity (scale of 0-5, where 5=worst, and 2=minimally objectionable) throughout the study period. Quality, color, and phytotoxicity were measured on 2 days before application (day −2) and day 2, day 5, day 15 and day 21 after application. All data was subject to statistical analysis and significant means were determined. Average turfgrass quality ratings for the treatments are presented in Table 6 and the quality results for application rates of 1.0 lb N/1000 ft^2/month are graphically presented in FIG. 2.
# [2] = tested on: Pennlinks creeping bentgrass maintained as a golf fairway; test: Phytotoxic injury rating, fairway creeping bentgrass (Example 15); assay type: in vivo
# Description: In this Example, the effect of a fertilizer comprising lysine on cool season fairway turfgrass growth was examined. The effects of lysine (HCl) and LIQUID LYSINE on a common type of golf course fairway variety turfgrass (Pennlinks creeping bentgrass maintained as a golf fairway) were compared with those of urea, Milorganite and a blended fertilizer (a blend of methylene urea and urea in an approximately 1:1 ratio).
# Fifteen fertilizer treatments comprising three concentrations of each fertilizer composition (Milorganite (N—P—K, 6-2-0), urea (N—P—K, 46-0-0), a blended fertilizer, LIQUID LYSINE (N—P—K, 10-2-1), and lysine (HCl) (N—P—K, 15-2-1)) were prepared and applied to 3 replications of a well established Pennlinks creeping bentgrass maintained as a golf fairway grass. The urea, lysine (HCl), and LIQUID LYSINE were dissolved/suspended in 1.5 gal water prior to application. […] The urea, LIQUID LYSINE and lysine (HCl) were applied as foliar liquids, while Milorganite and the blended fertilizer were applied as granular fertilizers. Plot size was 4 ft×8 ft laid out in a replicated complete block design. Plots were mowed at 0.5 inches before fertilizer application and mowed three times per week to 0.5 inch height. Grass clippings were not removed from the plots and no supplemental cultural maintenance was applied. Irrigation (0.15 inch) was applied following application and every other day thereafter. Plots were rated for turfgrass quality (scale of 1-9 where 9=dark green turf, 1=dead/brown turf, and 6=minimally acceptable turf and phytotoxic injury (scale of 0-9 where 9=significant foliar injury and 2=minimally objectional foliar injury) throughout the study period. Quality was measured prior to application (day 0) and day 37, day 70 and day 95 after application. Injury was measured on day 37, day 70 and day 95 after application. All data was subject to statistical analysis and significant means were determined. Average turfgrass quality ratings for the treatments are presented in Table 24.
# [3] = Monthly Rate 0.5 lbs N/1000 ft^2, Day 2
# [4] = Monthly Rate 0.5 lbs N/1000 ft^2, Day 5
# [5] = Monthly Rate 0.5 lbs N/1000 ft^2, Day 15
# [6] = Monthly Rate 0.5 lbs N/1000 ft^2, Day 21
# [7] = Monthly Rate 0.5 lbs N/1000 ft^2, Day −2 (before application)
# [8] = Monthly Rate 1.0 lbs N/1000 ft^2, Day 2
# [9] = Monthly Rate 1.0 lbs N/1000 ft^2, Day 5
# [10] = Monthly Rate 1.0 lbs N/1000 ft^2, Day 15
# [11] = Monthly Rate 1.0 lbs N/1000 ft^2, Day 21
# [12] = Monthly Rate 1.0 lbs N/1000 ft^2, Day −2 (before application)
# [13] = Monthly Rate 3.0 lbs N/1000 ft^2, Day 2
# [14] = Monthly Rate 3.0 lbs N/1000 ft^2, Day 5
# [15] = Monthly Rate 3.0 lbs N/1000 ft^2, Day 15
# [16] = Monthly Rate 3.0 lbs N/1000 ft^2, Day 21
# [17] = Monthly Rate 3.0 lbs N/1000 ft^2, Day −2 (before application)
# [18] = Weekly Rate 0.5 lbs N/1000 ft^2, Day 37
# [19] = Weekly Rate 0.5 lbs N/1000 ft^2, Day 70
# [20] = Weekly Rate 0.5 lbs N/1000 ft^2, Day 95
# [21] = Weekly Rate 1.0 lbs N/1000 ft^2, Day 37
# [22] = Weekly Rate 1.0 lbs N/1000 ft^2, Day 70
# [23] = Weekly Rate 1.0 lbs N/1000 ft^2, Day 95
# [24] = Weekly Rate 3.0 lbs N/1000 ft^2, Day 37
# [25] = Weekly Rate 3.0 lbs N/1000 ft^2, Day 70
# [26] = Weekly Rate 3.0 lbs N/1000 ft^2, Day 95
SMILES,"Color Ratings - St. Augustine Grass [1, 3]","Quality Ratings - St. Augustine Grass [1, 3]","Color Ratings - St. Augustine Grass [1, 4]","Quality Ratings - St. Augustine Grass [1, 4]","Color Ratings - St. Augustine Grass [1, 5]","Quality Ratings - St. Augustine Grass [1, 5]","Color Ratings - St. Augustine Grass [1, 6]","Quality Ratings - St. Augustine Grass [1, 6]","Color Ratings - St. Augustine Grass [1, 7]","Quality Ratings - St. Augustine Grass [1, 7]","Color Ratings - St. Augustine Grass [1, 8]","Quality Ratings - St. Augustine Grass [1, 8]","Color Ratings - St. Augustine Grass [1, 9]","Quality Ratings - St. Augustine Grass [1, 9]","Color Ratings - St. Augustine Grass [1, 10]","Quality Ratings - St. Augustine Grass [1, 10]","Color Ratings - St. Augustine Grass [1, 11]","Quality Ratings - St. Augustine Grass [1, 11]","Color Ratings - St. Augustine Grass [1, 12]","Quality Ratings - St. Augustine Grass [1, 12]",further results
"Cl.NCCCC[C@H](N)C(=O)O [Lys (HCl) 15% N, L-lysine monohydrochloride]",6.5,6.5,7.3cd,7.1bcd,7.0ef,7.3ef,7.4c,7.3cd,6.6,6.5,7.0,6.6,7.6bc,7.3abc,7.6cd,7.9cde,8.0abc,7.9ab,6.6,6.4,"Color Ratings - St. Augustine Grass [1, 13]: 6.6; Quality Ratings - St. Augustine Grass [1, 13]: 6.9; Color Ratings - St. Augustine Grass [1, 14]: 8.0ab; Quality Ratings - St. Augustine Grass [1, 14]: 7.5ab; Color Ratings - St. Augustine Grass [1, 15]: 8.6a; Quality Ratings - St. Augustine Grass [1, 15]: 9.3a; Color Ratings - St. Augustine Grass [1, 16]: 8.0abc; Quality Ratings - St. Augustine Grass [1, 16]: 7.9ab; Color Ratings - St. Augustine Grass [1, 17]: 6.6; Quality Ratings - St. Augustine Grass [1, 17]: 6.3; Injury Rating - Fairway Bentgrass [2, 18]: 1.3ab; Injury Rating - Fairway Bentgrass [2, 19]: 5.7; Injury Rating - Fairway Bentgrass [2, 20]: 2.0bc; Injury Rating - Fairway Bentgrass [2, 21]: 1.0b; Injury Rating - Fairway Bentgrass [2, 22]: 5.0; Injury Rating - Fairway Bentgrass [2, 23]: 3.0abc; Injury Rating - Fairway Bentgrass [2, 24]: 2.0a; Injury Rating - Fairway Bentgrass [2, 25]: 4.7; Injury Rating - Fairway Bentgrass [2, 26]: 2.0bc"
"NC(N)=O [Urea, urea, reference compound]",6.9,6.8,7.4cd,7.1bcd,7.8bc,7.6def,7.6bc,7.6bc,6.4,6.3,6.9,6.8,7.6bc,7.5ab,7.5cde,7.9cde,7.9abc,7.6bc,6.4,6.3,"Color Ratings - St. Augustine Grass [1, 13]: 6.8; Quality Ratings - St. Augustine Grass [1, 13]: 6.9; Color Ratings - St. Augustine Grass [1, 14]: 8.3a; Quality Ratings - St. Augustine Grass [1, 14]: 7.3abc; Color Ratings - St. Augustine Grass [1, 15]: 8.8a; Quality Ratings - St. Augustine Grass [1, 15]: 9.1ab; Color Ratings - St. Augustine Grass [1, 16]: 8.5a; Quality Ratings - St. Augustine Grass [1, 16]: 8.3a; Color Ratings - St. Augustine Grass [1, 17]: 6.1; Quality Ratings - St. Augustine Grass [1, 17]: 6.1; Injury Rating - Fairway Bentgrass [2, 18]: 1.3ab; Injury Rating - Fairway Bentgrass [2, 19]: 6.3; Injury Rating - Fairway Bentgrass [2, 20]: 2.0bc; Injury Rating - Fairway Bentgrass [2, 21]: 1.3ab; Injury Rating - Fairway Bentgrass [2, 22]: 6.0; Injury Rating - Fairway Bentgrass [2, 23]: 1.3c; Injury Rating - Fairway Bentgrass [2, 24]: 1.0b; Injury Rating - Fairway Bentgrass [2, 25]: 5.7; Injury Rating - Fairway Bentgrass [2, 26]: 4.3a"
